Experimental data as given in patent US10029986B2, “Alkynyl pyridine-substituted amide compound and pesticide” (NISSAN CHEMICAL INDUSTRIES, LTD., priority 2014, dated 2018).

Columns and labels:
[1] = test system: Phaeosphaeria nodorum (Synonym: Septoria nodorum); test: Test on the preventive effect against wheat glume blotch; type: in vivo; settings: Parastagonospora nodorum, 144 h; test solution A 500 ppm, 5 ml per pot, wheat 1.3-leaf stage, 2 days inoculation chamber then 6 days at 20° C.
Protocol: Compounds of the present invention were dissolved in a solvent for emulsion (a mixture of Sorpol (registered trademark) 3005XL (manufactured by Toho Chemical Industry Co., Ltd.): N-methylpyrrolidone: Solvesso (registered trademark) 200 (manufactured by ExxonMobil Chemical) in a ratio of 1:5:2) to prepare 20 wt % emulsifiable concentrates. Then, distilled water was added to dilute the emulsifiable concentrates to the prescribed concentration (500 ppm), and the obtained solutions were used in the following the Test Examples 1 to 8. Wheat (varieties: Haruyutaka) was seeded in 90 cm^3 plastic pot, and at 1.3-leaf stage, 5 ml per pot of test solution A of the compounds of the present invention was applied. One day after treatment, a suspension of conidium of Phaeosphaeria nodorum (Synonym: Septoria nodorum) was sprayed to the wheat, and the pot was left in the inoculation chamber at 20° C. under humidity of 100% RH for 2 days. Then, the pot was placed in an air-conditioned greenhouse (20° C.) for 6 days. The proportion of the formed lesion in the inoculated leaves were measured to calculate the control value in accordance with the same formula as in the Test Example 1. The test was carried out in duplicate.

[2] = test system: Blumeria graminis f. sp. tritici; test: Test on the preventive effect against wheat powdery mildew; type: in vivo; settings: 168 h, test solution A 500 ppm, 5 ml per pot, wheat 1.3-leaf stage, 7 days after inoculation
Protocol: Compounds of the present invention were dissolved in a solvent for emulsion (a mixture of Sorpol (registered trademark) 3005XL (manufactured by Toho Chemical Industry Co., Ltd.): N-methylpyrrolidone: Solvesso (registered trademark) 200 (manufactured by ExxonMobil Chemical) in a ratio of 1:5:2) to prepare 20 wt % emulsifiable concentrates. Then, distilled water was added to dilute the emulsifiable concentrates to the prescribed concentration (500 ppm), and the obtained solutions were used in the following the Test Examples 1 to 8. Wheat (varieties: Norin 61) was seeded in 90 cm^3 plastic pot, and at the 1.3-leaf stage, 5 ml per pot of test solution A of the compounds of the present invention were applied. One day after treatment, the pot was placed in an air-conditioned greenhouse (20° C.), and conidium of Blumeria graminis f. sp. tritici was inoculated to the wheat. 7 days after, the proportion of the formed lesion in the inoculated leaves were measured to calculate the control value in accordance with the same formula as in the Test Example 1. The test was carried out in duplicate.

[3] = test system: Barber pole worm (Haemonchus contortus); test: Insecticidal test against Barber pole worm (eggs, 96 well plate); type: in vivo; settings: 96 h, test solution B 100 ppm, 10 μl per well, 25° C. dark, 4 days after treatment, read-out: efficacy (unhatched eggs and inactive larvae relative to non-treated)
Protocol: (§1) Compounds of the present invention were dissolved in dimethyl sulfoxide to prepare 1 wt % solutions. Then, distilled water was added to dilute the solutions to the prescribed concentration (100 ppm), and the obtained solutions were used in the following the Test Examples 9 to 12. 60 μl of a potato dextrose 1% agar medium was added to each well of a 96 well plate, and 30 μl of sterilized water containing eggs of Barber pole worm (Haemonchus contortus) (10 eggs/3 μl) was added to each well. Further, 10 μl per well of test solution B of the compounds of the present invention was added, and the plate was left at rest at 25° C. under dark conditions.

[4] = test system: Erysiphe polygoni (synonym: Erysiphe betae); test: Test on the preventive effect against cucumber powdery mildew; type: in vivo; settings: 216 h, test solution A 500 ppm, 5 ml per pot sprayed, cucumber cotyledon stage, 9 days after inoculation
Protocol: Compounds of the present invention were dissolved in a solvent for emulsion (a mixture of Sorpol (registered trademark) 3005XL (manufactured by Toho Chemical Industry Co., Ltd.): N-methylpyrrolidone: Solvesso (registered trademark) 200 (manufactured by ExxonMobil Chemical) in a ratio of 1:5:2) to prepare 20 wt % emulsifiable concentrates. Then, distilled water was added to dilute the emulsifiable concentrates to the prescribed concentration (500 ppm), and the obtained solutions were used in the following the Test Examples 1 to 8. Cucumber (varieties: Sagami Hanjiro) was seeded in 90 cm^3 plastic pot, and at the cotyledon stage, 5 ml per pot of test solution A of the compounds of the present invention was sprayed. After drying in air, the pot was placed in an air-conditioned greenhouse (20° C.), and a suspension of conidium of Erysiphe polygoni (synonym: Erysiphe betae) was sprayed. After the pot were replaced at the same temperature for 9 days, the proportion of the formed lesion in the inoculated leaves were counted to calculate the control value in accordance with the following formula. The test was carried out in duplicate. Control value=[1−(lesion area ratio in treated plot/lesion are a ratio in non-treated plot)]×100

Sclerotinia sclerotiorum = test: Test on the preventive effect against cucumber stem rot; type: in vivo; settings: 48 h, test solution A 500 ppm, 5 ml per pot, agar block inoculation, 2 days at 20° C.
Protocol: Compounds of the present invention were dissolved in a solvent for emulsion (a mixture of Sorpol (registered trademark) 3005XL (manufactured by Toho Chemical Industry Co., Ltd.): N-methylpyrrolidone: Solvesso (registered trademark) 200 (manufactured by ExxonMobil Chemical) in a ratio of 1:5:2) to prepare 20 wt % emulsifiable concentrates. Then, distilled water was added to dilute the emulsifiable concentrates to the prescribed concentration (500 ppm), and the obtained solutions were used in the following the Test Examples 1 to 8. Cucumber (varieties: Sagami Hanjiro) was seeded in 90 cm^3 plastic pot, and at the cotyledon stage, 5 ml per pot of test solution A of the compounds of the present invention was applied. After drying in air, the pot was transferred in a plastic container, and an agar blocks (diameter: 5 mm) containing Sclerotinia sclerotiorum which was preliminarily cultivated in a PDA medium was inoculated to the seed leaves of the cucumber treated with the solution. After the inoculation, the plastic container was covered with a plastic sheet, and placed at 20° C. and humidified for 2 days, thus the proportion of the formed lesion in the inoculated leaves were measured to calculate the control value in accordance with the same formula as in the Test Example 1. The test was carried out in duplicate.

Asperaillus niger = test: Test on the antifungal activity against Asperaillus niger; type: cell-based; settings: 48 h; test solution B 100 ppm, 10 μl per well, 96 well plate, 25° C. dark, 2 days after treatment; read-out: efficacy (flora area ratio relative to non-treated well)
Protocol: as §1, with “spores” for “eggs”, “Asperaillus niger” for “Barber pole worm (Haemonchus contortus)”, “spores/3” for “eggs/3”, “conditions. 2 days after treatment, the flora area ratio (%) was determined to calculate the efficacy (%) relative to the non-treated well in accordance with the following formula. Efficacy (%)=[1−(flora area ratio in treated plot/flora area ratio in non-treated well)]×100” for “conditions.”

## CC#Cc1cnc(CCNC(=O)c2ccccc2C(F)(F)F)c(Cl)c1 [1-001, N-[2-[3-chloro-5-(1-propynyl)pyridin-2-yl]ethyl]-2-(trifluoromethyl)benzamide]
[1]
  pest or weed control at 500 µg/mL: ≥ 70%
[2]
  pest or weed control at 500 µg/mL: ≥ 70%
[3]
  pest or weed control at 100 µg/mL: ≥ 50%
[4]
  pest or weed control at 500 µg/mL: ≥ 70%
Sclerotinia sclerotiorum
  pest or weed control at 500 µg/mL: ≥ 70%

## O=C(NCCc1ncc(C#CC2CC2)cc1Cl)c1ccccc1C(F)(F)F [1-002]
[1]
  pest or weed control at 500 µg/mL: ≥ 70%
[2]
  pest or weed control at 500 µg/mL: ≥ 70%
[3]
  pest or weed control at 100 µg/mL: ≥ 50%
[4]
  pest or weed control at 500 µg/mL: ≥ 70%
Asperaillus niger
  inhibition of growth at 100 µg/mL: ≥ 50%
Sclerotinia sclerotiorum
  pest or weed control at 500 µg/mL: ≥ 70%

## CC(C)(C)C#Cc1cnc(CCNC(=O)c2ccccc2C(F)(F)F)c(Cl)c1 [1-003, N-[2-[3-chloro-5-(3,3-dimethyl-1-butynyl)pyridin-2-yl]ethyl]-2-(trifluoromethyl)benzamide]
[1]
  pest or weed control at 500 µg/mL: ≥ 70%
[2]
  pest or weed control at 500 µg/mL: ≥ 70%
[3]
  pest or weed control at 100 µg/mL: ≥ 50%
[4]
  pest or weed control at 500 µg/mL: ≥ 70%
Asperaillus niger
  inhibition of growth at 100 µg/mL: ≥ 50%
Sclerotinia sclerotiorum
  pest or weed control at 500 µg/mL: ≥ 70%

## O=C(NCC(F)(F)c1ncc(C#CC2CC2)cc1Cl)c1ccccc1C(F)(F)F [1-005]
[1]
  pest or weed control at 500 µg/mL: ≥ 70%
[2]
  pest or weed control at 500 µg/mL: ≥ 70%
[3]
  pest or weed control at 100 µg/mL: ≥ 50%
[4]
  pest or weed control at 500 µg/mL: ≥ 70%
Asperaillus niger
  inhibition of growth at 100 µg/mL: ≥ 50%
Sclerotinia sclerotiorum
  pest or weed control at 500 µg/mL: ≥ 70%

## CC(NC(=O)c1ccccc1C(F)(F)F)C(OCc1ccccc1)c1ncc(C#CC2CC2)cc1Cl (stereo not drawn) [1-031, N-[2-benzyloxy-2-[3-chloro-5-(cyclopropylethynyl)pyridin-2-yl]-1-methylethyl]-2-(trifluoromethyl)benzamide]
[1]
  pest or weed control at 500 µg/mL: ≥ 70%
[2]
  pest or weed control at 500 µg/mL: ≥ 70%
[4]
  pest or weed control at 500 µg/mL: ≥ 70%
Sclerotinia sclerotiorum
  pest or weed control at 500 µg/mL: ≥ 70%

## COC(c1ncc(C#CC2CC2)cc1Cl)C(C)NC(=O)c1nccnc1C(F)(F)F (stereo not drawn) [4-004]
[1]
  pest or weed control at 500 µg/mL: ≥ 70%
[2]
  pest or weed control at 500 µg/mL: ≥ 70%
[3]
  pest or weed control at 100 µg/mL: ≥ 50%
[4]
  pest or weed control at 500 µg/mL: ≥ 70%
Sclerotinia sclerotiorum
  pest or weed control at 500 µg/mL: ≥ 70%

## Cn1cc(C(=O)NCC2(c3ncc(C#CC4CC4)cc3Cl)CC2)c(C(F)F)n1 [8-018, N-[[1-[3-chloro-5-(cyclopropylethynyl)pyridin-2-yl]cyclopropyl]methyl]-3-difluoromethyl-1-methyl-1H-pyrazole-4-carboxamide]
[1]
  pest or weed control at 500 µg/mL: ≥ 70%
[2]
  pest or weed control at 500 µg/mL: ≥ 70%
[3]
  pest or weed control at 100 µg/mL: ≥ 50%
[4]
  pest or weed control at 500 µg/mL: ≥ 70%
Sclerotinia sclerotiorum
  pest or weed control at 500 µg/mL: ≥ 70%

## CSC(CNC(=O)c1cn(C)nc1C(F)F)c1ncc(C#CC2CC2)cc1Cl (stereo not drawn) [8-020, N-[2-[3-chloro-5-(cyclopropylethynyl)pyridin-2-yl]-2-(methylthio)ethyl]-3-difluoromethyl-1-methyl-1H-pyrazole-4-carboxamide]
[2]
  pest or weed control at 500 µg/mL: ≥ 70%
[3]
  pest or weed control at 100 µg/mL: ≥ 50%
[4]
  pest or weed control at 500 µg/mL: ≥ 70%
Asperaillus niger
  inhibition of growth at 100 µg/mL: ≥ 50%
Sclerotinia sclerotiorum
  pest or weed control at 500 µg/mL: ≥ 70%

## COC(=O)C(CNC(=O)c1cn(C)nc1C(F)F)c1ncc(C#CC2CC2)cc1Cl (stereo not drawn) [8-022, 2-[3-chloro-5-(cyclopropylethynyl)pyridin-2-yl]-3-(3-difluoromethyl-1-methyl-1H-pyrazole-4-carboxamide)propionic acid methyl ester]
[1]
  pest or weed control at 500 µg/mL: ≥ 70%
[2]
  pest or weed control at 500 µg/mL: ≥ 70%
[4]
  pest or weed control at 500 µg/mL: ≥ 70%
Sclerotinia sclerotiorum
  pest or weed control at 500 µg/mL: ≥ 70%

## CC(Cc1ncc(C#CC2CC2)cc1Cl)NC(=O)c1cn(C)nc1C(F)F (stereo not drawn) [8-024, N-[2-[3-chloro-5-(cyclopropylethynyl)pyridin-2-yl]-1-methylethyl]-3-difluoromethyl-1-methyl-1H-pyrazole-4-carboxamide]
[1]
  pest or weed control at 500 µg/mL: ≥ 70%
[2]
  pest or weed control at 500 µg/mL: ≥ 70%
[4]
  pest or weed control at 500 µg/mL: ≥ 70%
Sclerotinia sclerotiorum
  pest or weed control at 500 µg/mL: ≥ 70%

## CC(Cc1ncc(C#Cc2ccccc2)cc1Cl)NC(=O)c1cn(C)nc1C(F)F (stereo not drawn) [8-027]
[1]
  pest or weed control at 500 µg/mL: ≥ 70%
[2]
  pest or weed control at 500 µg/mL: ≥ 70%
[4]
  pest or weed control at 500 µg/mL: ≥ 70%
Sclerotinia sclerotiorum
  pest or weed control at 500 µg/mL: ≥ 70%
